Measurements reported in paper PMC11434067, “Bioassay-Guided Isolation and Identification of Xanthine Oxidase Inhibitory Constituents from the Fruits of Chaenomeles speciosa (Sweet) Nakai” (Molecules, 2024).
Like-named read-outs stand apart in the source and are kept apart here.

Assays:
[1] = molecular target: T1, XO (Bos taurus, UniProt P80457); experiment: In vitro xanthine oxidase inhibition assay (uric acid formation, absorbance at 290 nm); type: biochemical
[2] = molecular target: T1, XO; conditions: cited from earlier work

T1 sequence (P80457 whole entry): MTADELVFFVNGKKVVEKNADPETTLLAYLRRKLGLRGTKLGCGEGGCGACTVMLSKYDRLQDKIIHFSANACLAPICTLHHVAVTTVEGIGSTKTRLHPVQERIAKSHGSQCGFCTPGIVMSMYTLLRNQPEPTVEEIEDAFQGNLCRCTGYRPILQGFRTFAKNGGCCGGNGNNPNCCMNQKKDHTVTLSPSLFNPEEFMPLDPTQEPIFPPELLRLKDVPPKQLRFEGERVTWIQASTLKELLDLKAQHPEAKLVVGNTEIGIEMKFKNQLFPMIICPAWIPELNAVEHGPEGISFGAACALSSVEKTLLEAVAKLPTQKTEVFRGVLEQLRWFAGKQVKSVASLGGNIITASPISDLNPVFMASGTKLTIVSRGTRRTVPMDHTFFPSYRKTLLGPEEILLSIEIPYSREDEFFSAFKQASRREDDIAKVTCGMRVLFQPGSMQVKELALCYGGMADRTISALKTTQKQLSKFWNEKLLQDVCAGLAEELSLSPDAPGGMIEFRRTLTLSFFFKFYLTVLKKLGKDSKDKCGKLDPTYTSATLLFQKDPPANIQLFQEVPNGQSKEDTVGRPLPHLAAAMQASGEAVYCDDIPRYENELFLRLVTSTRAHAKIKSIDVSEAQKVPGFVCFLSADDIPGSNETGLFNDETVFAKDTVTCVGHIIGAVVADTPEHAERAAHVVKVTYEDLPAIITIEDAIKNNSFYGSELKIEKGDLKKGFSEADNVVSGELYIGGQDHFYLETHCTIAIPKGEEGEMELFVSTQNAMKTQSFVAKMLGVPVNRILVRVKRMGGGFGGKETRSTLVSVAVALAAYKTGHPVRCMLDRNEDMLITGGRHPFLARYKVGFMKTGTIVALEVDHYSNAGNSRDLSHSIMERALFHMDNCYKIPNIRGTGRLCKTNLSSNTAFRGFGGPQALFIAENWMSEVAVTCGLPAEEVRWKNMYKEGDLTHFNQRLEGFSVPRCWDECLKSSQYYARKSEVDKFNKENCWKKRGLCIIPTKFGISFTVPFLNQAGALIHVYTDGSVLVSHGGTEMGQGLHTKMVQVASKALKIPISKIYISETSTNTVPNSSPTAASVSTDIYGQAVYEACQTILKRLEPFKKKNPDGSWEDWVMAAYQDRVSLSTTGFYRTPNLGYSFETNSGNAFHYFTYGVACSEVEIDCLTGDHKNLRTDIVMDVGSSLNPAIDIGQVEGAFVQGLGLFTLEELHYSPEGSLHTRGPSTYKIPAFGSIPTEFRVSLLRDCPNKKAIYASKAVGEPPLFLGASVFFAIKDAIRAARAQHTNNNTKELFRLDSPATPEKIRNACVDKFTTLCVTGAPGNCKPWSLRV

Structure (SMILES)	IC50 [1]	also measured
COC(=O)[C@]1(O)C[C@@H](O)[C@@H](O)[C@H](OC(=O)/C=C/c2ccc(O)c(O)c2)C1 [compound 1, methyl chlorogenate]	425 µM	–
CCOC(=O)[C@]1(O)C[C@@H](O)[C@@H](O)[C@H](OC(=O)/C=C/c2ccc(O)c(O)c2)C1 [compound 3, ethyl chlorogenate]	450 µM	–
O=C(O)/C=C/c1ccc(O)c(O)c1 [compound 6, caffeic acid]	242 µM	–
O=C(O)c1ccccc1 [compound 8, benzoic acid]	104 µM	inhibition of XO at low concentration (in words) ([1]; concentration lower than 200 µM): high inhibition
O=C(O)c1ccc(O)c(O)c1 [compound 9, protocatechuic acid]	651 µM	–

More lines, in order of falling IC50 [1], values ahead:

IC50 [1]	Structure (SMILES)	also measured
600 µM	COC(=O)C1(O)C[C@@H](O)C(OC(=O)/C=C/c2ccc(O)c(O)c2)[C@H](O)C1 (stereo partly drawn) [compound 5, cryptochlorogenic acid methyl ester]	–
399 µM	CCCCOC(=O)C1(O)CC(O)C(O)C(OC(=O)C=Cc2ccc(O)c(O)c2)C1 (stereo not drawn) [compound 2, butyl chlorogenate]	–
351 µM	O=C(O)/C=C/c1ccc(O)cc1 [compound 7, p-coumaric acid]	–
297 µM	O=C(/C=C/c1ccc(O)c(O)c1)O[C@@H]1C[C@](O)(C(=O)O)C[C@@H](O)[C@H]1O [compound 4, chlorogenic acid]	type of XO inhibition ([2]; ref 45): noncompetitive inhibition; type of XO inhibition ([2]; ref 46): non-competitive inhibitory effect
